In PubChem BioAssay (NCI):
Where “and” joins values, the source holds several entries; their conditions need not be identical. Equal values may be shown once.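 Five concentrations, 48 hours, 96-well plates. GI50 is the concentration that inhibits growth by half. TGI denotes the concentration required for complete inhibition of growth.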

What was measured:
Assay in all cases: NCI-60 cell line screen, 48 h
[1] = system: 786-0 renal
[2] = system: A549 NSCLC
[3] = system: ACHN renal
[4] = system: CAKI-1 renal
[5] = system: COLO 205 colon
[6] = system: DLD-1 colon
[7] = system: HCC-2998 colon
[8] = system: HCT-116 colon
[9] = system: HCT-15 colon
[10] = system: HL-60(TB) leukemia
[11] = system: HOP-62 NSCLC
[12] = system: HOP-92 NSCLC
[13] = system: HT29 colon
[14] = system: IGROV1 ovarian
[15] = system: K-562 leukemia
[16] = system: KM12 colon
[17] = system: KM20L2 colon
[18] = system: LOX IMVI melanoma
[19] = system: LXFL 529 NSCLC
[20] = system: M14 melanoma
[21] = system: M19-MEL melanoma
[22] = system: MALME-3M melanoma
[23] = system: MOLT-4 leukemia
[24] = system: NCI-H226 lung
[25] = system: NCI-H23 lung
[26] = system: NCI-H460 lung
[27] = system: NCI-H522 lung
[28] = system: OVCAR-3 ovarian
[29] = system: OVCAR-4 ovarian
[30] = system: OVCAR-5 ovarian
[31] = system: OVCAR-8 ovarian
[32] = system: RPMI-8226 leukemia
[33] = system: RXF-631 renal
[34] = system: SF-268 CNS
[35] = system: SF-295 CNS
[36] = system: SF-539 CNS
[37] = system: SK-MEL-2 melanoma
[38] = system: SK-MEL-28 melanoma
[39] = system: SK-OV-3 ovarian
[40] = system: SN12C renal
[41] = system: SNB-19 CNS
[42] = system: SNB-75 CNS
[43] = system: SNB-78 CNS
[44] = system: SR leukemia
[45] = system: SW-620 colon
[46] = system: TK-10 renal
[47] = system: U251 CNS
[48] = system: UACC-257 melanoma
[49] = system: UACC-62 melanoma
[50] = system: UO-31 renal
[51] = system: XF 498 CNS
[52] = system: A498 renal
[53] = system: CCRF-CEM leukemia
[54] = system: DMS 114 small cell lung
[55] = system: EKVX NSCLC
[56] = system: HOP-18 NSCLC
[57] = system: RXF 393 renal
[58] = system: SK-MEL-5 melanoma

**Q.** Which results are given for `CC1OC(n2ncc(=O)[nH]c2=O)C=CC1=O` (stereo unspecified)?
**A.** TGI [1]: > 100 µM; TGI [2]: > 100 µM; TGI [3]: > 100 µM; TGI [4]: > 100 µM; GI50 [5]: > 100 µM and 36.9 µM; TGI [5]: > 100 µM; GI50 [6]: 77.2 µM and 31.2 µM; TGI [6]: > 100 µM; TGI [7]: > 100 µM; TGI [8]: > 100 µM; GI50 [9]: 90.5 µM and 34.6 µM; TGI [9]: > 100 µM; TGI [10]: 57.5 µM and 52.7 µM; GI50 [11]: > 100 µM and 42.1 µM; TGI [11]: > 100 µM; GI50 [12]: 71.1 µM and 32.8 µM; TGI [12]: > 100 µM and 71.9 µM; TGI [13]: > 100 µM; TGI [14]: > 100 µM; TGI [15]: > 100 µM; TGI [16]: > 100 µM; GI50 [17]: > 100 µM and 40.7 µM; TGI [17]: > 100 µM; TGI [18]: > 100 µM; TGI [19]: > 100 µM; GI50 [20]: 89.4 µM and 20.5 µM; TGI [20]: > 100 µM and 60.5 µM; TGI [21]: > 100 µM; TGI [22]: 40.2 µM and 48.3 µM; GI50 [23]: 81.1 µM and 30.2 µM; TGI [23]: > 100 µM; TGI [24]: > 100 µM; GI50 [25]: 34.7 µM and 16.5 µM; TGI [25]: > 100 µM and 37.3 µM; TGI [26]: > 100 µM; TGI [27]: 37.6 µM and 36.2 µM; TGI [28]: > 100 µM; TGI [29]: > 100 µM; TGI [30]: > 100 µM; TGI [31]: > 100 µM; TGI [32]: 99.3 µM and 62 µM; TGI [33]: 32.5 µM and 43.5 µM; GI50 [34]: > 100 µM and 36.6 µM; TGI [34]: > 100 µM; TGI [35]: > 100 µM; TGI [36]: > 100 µM and 47.9 µM; GI50 [37]: > 100 µM and 49.2 µM; TGI [37]: > 100 µM; TGI [38]: 93.8 µM and 46 µM; GI50 [39]: > 100 µM and 29.3 µM; TGI [39]: > 100 µM; TGI [40]: > 100 µM; GI50 [41]: > 100 µM and 35.1 µM; TGI [41]: > 100 µM; TGI [42]: > 100 µM; TGI [43]: 86.8 µM and > 100 µM; TGI [44]: > 100 µM and 92.9 µM; GI50 [45]: > 100 µM and 44.1 µM; TGI [45]: > 100 µM; TGI [46]: > 100 µM; TGI [47]: > 100 µM; GI50 [48]: 37 µM; TGI [48]: > 100 µM; TGI [49]: > 100 µM; TGI [50]: > 100 µM; GI50 [51]: 54.8 µM and 22.9 µM; TGI [51]: > 100 µM

**Q.** `N#CC(C(=O)/C(=N/N)C(C#N)c1ccc(Cl)cc1)c1ccc(Cl)cc1` (stereo unspecified) was tested. Which TGI [1] did it give?
**A.** > 100 µM

**Q.** And the TGI [52]?
**A.** > 100 µM

**Q.** What about the TGI [2] of the same compound?
**A.** > 100 µM

**Q.** What about the TGI [3] of the same compound?
**A.** > 100 µM

**Q.** What about the TGI [53] of the same compound?
**A.** > 100 µM

**Q.** What about the TGI [5] of the same compound?
**A.** > 100 µM

**Q.** And the TGI [6]?
**A.** > 100 µM

**Q.** And the TGI [54]?
**A.** > 100 µM

**Q.** What about the TGI [55] of the same compound?
**A.** > 100 µM

**Q.** And the TGI [7]?
**A.** > 100 µM

**Q.** What about the TGI [8] of the same compound?
**A.** > 100 µM

**Q.** And the TGI [9]?
**A.** > 100 µM

**Q.** And the TGI [10]?
**A.** > 100 µM

**Q.** What about the TGI [56] of the same compound?
**A.** > 100 µM

**Q.** What about the TGI [11] of the same compound?
**A.** > 100 µM

**Q.** What about the TGI [12] of the same compound?
**A.** > 100 µM

**Q.** What about the TGI [13] of the same compound?
**A.** > 100 µM

**Q.** And the TGI [14]?
**A.** > 100 µM

**Q.** And the TGI [15]?
**A.** > 100 µM

**Q.** And the TGI [16]?
**A.** > 100 µM

**Q.** What about the TGI [17] of the same compound?
**A.** > 100 µM

**Q.** And the TGI [18]?
**A.** > 100 µM

**Q.** What about the TGI [19] of the same compound?
**A.** > 100 µM

**Q.** And the TGI [20]?
**A.** > 100 µM

**Q.** What about the TGI [21] of the same compound?
**A.** > 100 µM

**Q.** What about the TGI [22] of the same compound?
**A.** > 100 µM

**Q.** And the TGI [23]?
**A.** > 100 µM

**Q.** And the TGI [24]?
**A.** > 100 µM

**Q.** What about the TGI [25] of the same compound?
**A.** > 100 µM

**Q.** And the TGI [26]?
**A.** > 100 µM

**Q.** What about the TGI [27] of the same compound?
**A.** > 100 µM

**Q.** And the TGI [28]?
**A.** > 100 µM

**Q.** What about the TGI [29] of the same compound?
**A.** > 100 µM

**Q.** What about the TGI [30] of the same compound?
**A.** > 100 µM

**Q.** What about the TGI [31] of the same compound?
**A.** > 100 µM

**Q.** What about the TGI [32] of the same compound?
**A.** > 100 µM

**Q.** And the TGI [57]?
**A.** > 100 µM

**Q.** What about the TGI [33] of the same compound?
**A.** > 100 µM

**Q.** What about the TGI [34] of the same compound?
**A.** > 100 µM

**Q.** What about the TGI [35] of the same compound?
**A.** > 100 µM

**Q.** And the TGI [36]?
**A.** > 100 µM

**Q.** And the TGI [37]?
**A.** > 100 µM

**Q.** And the TGI [58]?
**A.** > 100 µM

**Q.** And the TGI [40]?
**A.** > 100 µM

**Q.** And the TGI [41]?
**A.** > 100 µM

**Q.** And the TGI [42]?
**A.** > 100 µM

**Q.** What about the TGI [43] of the same compound?
**A.** > 100 µM

**Q.** And the TGI [45]?
**A.** > 100 µM

**Q.** And the TGI [46]?
**A.** > 100 µM

**Q.** And the TGI [47]?
**A.** > 100 µM

**Q.** And the TGI [48]?
**A.** > 100 µM

**Q.** And the TGI [49]?
**A.** > 100 µM

**Q.** And the TGI [50]?
**A.** > 100 µM

**Q.** And the TGI [51]?
**A.** > 100 µM
